According to PubChem BioAssay AID1963866 (Molecular Pharmacology Branch, DTP, NCI, 2024):

Tested on: PDC KRAS tumor spheroids with HUVEC/MSC, viability
Experiment: Anticancer human tumor 349418-098-R-PDC patient-derived lung adenocarcinoma cell line growth inhibition [KRAS2]
Details: for IC50: curve of first compound; for viability, T/C: stronger effect = lower value
Description: Multicellular complex tumor spheroid response to RAS pathway inhibitors in combination with a targeted agents in patient-derived cell lines with oncogenic KRAS variants from multiple cancer types
A high-throughput screen of multi-cell type tumor spheroids was designed to identify active combinations of targeted small molecules and KRAS pathway inhibitors. Complex spheroids include a stromal component modeled by human endothelial cells (HUVEC) and fibroblasts modeled by human mesenchymal stem cells (MSCs). The concentration ranges selected for each drug and investigational agent were based upon clinically achievable concentrations if the clinical Cmax of the agent was known.
Compounds. The drugs and investigational agents: BI-3406 (NSC825286), BAY-293 (NSC824723), batoprotafib (TNO155; NSC825523), sotorasib (AMG 510; NSC818433), MRTX1257 (NSC819558), elimusertib (BAY 1895344; NSC800525), molibresib (GSK525762; NSC774829), temuterkib (LY3214996; NSC803410), venetoclax (NSC766270), alisertib (NSC759677), olaparib (NSC753686), talazoparib (NSC767125), erdafitinib (NSC781556), ipatasertib (NSC767898), cabozantinib (NSC761068), nintedanib (NSC756659), abemaciclib (NSC768073), docetaxel (NSC628503), trametinib (NSC758246), and sapanisertib (NSC764658) were obtained from the National Cancer Institute (NCI) Developmental Therapeutics Program Chemical Repository. The FDA-approved anticancer drug set is available from the Developmental Therapeutics Program. […] The stock solutions were prepared in dimethyl sulfoxide (DMSO, Sigma-Aldrich, St. Louis, MO, cat. D2650) at 800-fold the tested concentration and stored at -70 degrees C prior to their use. All drugs and investigational agents were tested over a range starting from a high concentration at or near the clinical Cmax and decreasing in half-log increments. If the clinical Cmax for an agent had not been determined, the highest concentration tested was 10 microM.
Cell Culture. All cells were maintained in an incubator at 37 degrees C and 5% CO2 with 95% humidity. The PDC lines were cultured according to standard operating procedures established by the NCI PDMR (https://pdmr.cancer.gov/sops/default.htm). Briefly, all PDCs were thawed and cultured in Matrigel-coated flasks prepared with a working solution of 1X Ham's F-12 nutrient mix, without supplementation (Invitrogen, Waltham, MA, cat. 11765054), 100 U/mL penicillin-streptomycin (Invitrogen, cat. 15140122), and 2.5% Matrigel (Corning Inc., Corning, NY, cat. 354248) for the first three passages. All PDCs were cultured in complete DMEM/F-12 media containing advanced DMEM/F-12 (Invitrogen, cat. 12634028), 4.9% defined fetal bovine serum, heat inactivated (HyClone Laboratories Inc., Logan, UT, cat. SH30070.03HI), 389 ng/mL hydrocortisone (Sigma-Aldrich, cat. H4001), 9.7 ng/mL human EGF recombinant protein (Invitrogen, cat. PHG0313), 23.4 microg/mL adenine (Sigma-Aldrich, cat. A2786), 97.3 U/mL penicillin-streptomycin (Invitrogen, cat. 15140122), 1.9 mM L-glutamine (Invitrogen, cat. 25030081), and 9.7 microM Y-27632 dihydrochloride (Tocris Bioscience, Bristol, United Kingdom, cat. 1254). The PDCs were cultured in complete DMEM/F12 media without 9.7 microM Y-27632 dihydrochloride for at least two passages prior to the screen. The established cell line HOP-62 was cultured in RPMI 1640 medium, HEPES (Invitrogen, cat. 22400105) with 10% defined fetal bovine serum (HyClone Laboratories Inc., cat. SH30070.03) and 2 mM L-glutamine (Invitrogen, cat. 25030081). The pooled donor HUVEC were cultured in endothelial cell growth medium 2 (PromoCell, Heidelberg, Germany, cat. C-22011) and the hMSC were cultured in mesenchymal stem cell growth medium 2 (PromoCell, cat. C-28009). For all experiments, HUVEC and hMSC were used at passages </=5, while the malignant cell lines were used at passages </=15. […]

[1] = second compound 0.1 µM, first compound 0.01 µM
[2] = second compound 0.1 µM, first compound 0.0316 µM
[3] = second compound 0.1 µM, first compound 0.1 µM
[4] = second compound 0.1 µM, first compound 0.316 µM
[5] = second compound 0.1 µM, first compound 1 µM
[6] = second compound 0.1 µM, first compound 3.16 µM
[7] = second compound 0.316 µM, first compound 0.01 µM
[8] = second compound 0.316 µM, first compound 0.0316 µM
[9] = second compound 0.316 µM, first compound 0.1 µM
[10] = second compound 0.316 µM, first compound 0.316 µM
[11] = second compound 0.316 µM, first compound 1 µM
[12] = second compound 0.316 µM, first compound 3.16 µM
[13] = second compound 1 µM, first compound 0.01 µM
[14] = second compound 1 µM, first compound 0.0316 µM
[15] = second compound 1 µM, first compound 0.1 µM
[16] = second compound 1 µM, first compound 0.316 µM
[17] = second compound 1 µM, first compound 1 µM
[18] = second compound 1 µM, first compound 3.16 µM
[19] = second compound 3.16 µM, first compound 0.01 µM
[20] = second compound 3.16 µM, first compound 0.0316 µM
[21] = second compound 3.16 µM, first compound 0.1 µM
[22] = second compound 3.16 µM, first compound 0.316 µM
[23] = second compound 3.16 µM, first compound 1 µM
[24] = second compound 3.16 µM, first compound 3.16 µM
[25] = second compound 10 µM, first compound 0.01 µM
[26] = second compound 10 µM, first compound 0.0316 µM
[27] = second compound 10 µM, first compound 0.1 µM
[28] = second compound 10 µM, first compound 0.316 µM
[29] = second compound 10 µM, first compound 1 µM
[30] = second compound 10 µM, first compound 3.16 µM
[31] = second compound 0.1 µM, first compound 10 µM
[32] = second compound 0.316 µM, first compound 10 µM
[33] = second compound 1 µM, first compound 10 µM
[34] = second compound 3.16 µM, first compound 10 µM
[35] = second compound 10 µM, first compound 10 µM
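Further: spheroids exposed to compounds for seven days before readout.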

SMILES | IC50 (second compound 0.1 µM) [nM] | IC50 (second compound 0.316 µM) [nM] | IC50 (second compound 1 µM) [nM] | IC50 (second compound 3.16 µM) [nM] | IC50 (second compound 10 µM) [nM] | viability, T/C [2] [%] | viability, T/C [3] [%] | viability, T/C [4] [%] | viability, T/C [5] [%] | viability, T/C [6] [%] | viability, T/C [8] [%] | viability, T/C [9] [%] | viability, T/C [10] [%] | viability, T/C [11] [%] | viability, T/C [14] [%] | viability, T/C [15] [%] | viability, T/C [20] [%] | viability, T/C [21] [%] | viability, T/C [26] [%] | viability, T/C [27] [%] | also measured
CC(=O)OC12COC1CC(O)C1(C)C(=O)C(O)C3=C(C)C(OC(=O)C(O)C(NC(=O)OC(C)(C)C)c4ccccc4)CC(O)(C(OC(=O)c4ccccc4)C21)C3(C)C (stereo not given) + C=CC(=O)N1CCN(c2nc(=O)n(-c3c(C)ccnc3C(C)C)c3nc(-c4c(O)cccc4F)c(F)cc23)C(C)C1 | < 10 | < 10 | < 10 | < 10 | < 10 | 12.3 | 16 | 14.9 | 24 | 21.2 | 12.7 | 16.7 | 17.9 | 18 | 14.2 | 11.6 | 13.1 | 13.4 | 11 | 9.81 | viability, T/C [1]: 11.3%; viability, T/C [7]: 10.2%; viability, T/C [12]: 20.1%; viability, T/C [13]: 11.1%; viability, T/C [16]: 14.8%; viability, T/C [17]: 20.5%; viability, T/C [18]: 18.3%; viability, T/C [19]: 9.17%; viability, T/C [22]: 12.6%; viability, T/C [23]: 15.5%; viability, T/C [24]: 15.9%; viability, T/C [25]: 9.5%; viability, T/C [28]: 9.76%; viability, T/C [29]: 11.7%; viability, T/C [30]: 11.9%
CN(C)C/C=C/C(=O)Nc1cc2c(Nc3ccc(F)c(Cl)c3)ncnc2cc1O[C@H]1CCOC1 + C=CC(=O)N1CCN(c2nc(=O)n(-c3c(C)ccnc3C(C)C)c3nc(-c4c(O)cccc4F)c(F)cc23)C(C)C1 | > 100 | > 100 | > 100 | > 100 | < 0.316 | 99.1 | 94 |  |  |  | 100 | 87.5 |  |  | 80.5 | 78.2 | 55.2 | 64.9 | 27.5 | 32.6 | viability, T/C (second compound 0.1 µM, first compound 0.000316 µM): 104%; viability, T/C (second compound 0.1 µM, first compound 0.001 µM): 97.8%; viability, T/C (second compound 0.1 µM, first compound 0.00316 µM): 98.7%; viability, T/C [1]: 83.3%; viability, T/C (second compound 0.316 µM, first compound 0.000316 µM): 96.6%; viability, T/C (second compound 0.316 µM, first compound 0.001 µM): 106%; viability, T/C (second compound 0.316 µM, first compound 0.00316 µM): 95.1%; viability, T/C [7]: 91.7%; viability, T/C (second compound 1 µM, first compound 0.000316 µM): 90.6%; viability, T/C (second compound 1 µM, first compound 0.001 µM): 85.6%; viability, T/C (second compound 1 µM, first compound 0.00316 µM): 81%; viability, T/C [13]: 95.3%; viability, T/C (second compound 3.16 µM, first compound 0.000316 µM): 78%; viability, T/C (second compound 3.16 µM, first compound 0.001 µM): 68.4%; viability, T/C (second compound 3.16 µM, first compound 0.00316 µM): 83.8%; viability, T/C [19]: 59.5%; viability, T/C (second compound 10 µM, first compound 0.000316 µM): 40.9%; viability, T/C (second compound 10 µM, first compound 0.001 µM): 40.2%; viability, T/C (second compound 10 µM, first compound 0.00316 µM): 35.9%; viability, T/C [25]: 32.3%
COC(=O)c1ccc2c(C(=Nc3ccc(N(C)C(=O)CN4CCN(C)CC4)cc3)c3ccccc3)c(O)[nH]c2c1 + C=CC(=O)N1CCN(c2nc(=O)n(-c3c(C)ccnc3C(C)C)c3nc(-c4c(O)cccc4F)c(F)cc23)C(C)C1 | 157 | 226 | 242 | 106 | < 31.6 | 88.1 | 49.6 | 47.2 | 26.5 | 14.8 | 94.5 | 63.1 | 47.1 | 27.9 | 107 | 73.2 | 72.4 | 47.9 | 40 | 35.2 | viability, T/C [31]: 15.1%; viability, T/C [12]: 17.2%; viability, T/C [32]: 15.5%; viability, T/C [16]: 39.8%; viability, T/C [17]: 30.4%; viability, T/C [18]: 18.1%; viability, T/C [33]: 13.7%; viability, T/C [22]: 35.7%; viability, T/C [23]: 28.4%; viability, T/C [24]: 11.6%; viability, T/C [34]: 10.9%; viability, T/C [28]: 31.4%; viability, T/C [29]: 25.3%; viability, T/C [30]: 5.38%; viability, T/C [35]: 1.56%
O=C(c1cc(Cc2n[nH]c(=O)c3ccccc23)ccc1F)N1CCN(C(=O)C2CC2)CC1 + C=CC(=O)N1CCN(c2nc(=O)n(-c3c(C)ccnc3C(C)C)c3nc(-c4c(O)cccc4F)c(F)cc23)C(C)C1 | 95.8 | 350 | 1630 | 1310 | < 31.6 | 84.6 | 47.1 | 32.3 | 21.4 | 17.5 | 92.6 | 86.3 | 52.2 | 26.3 | 100 | 92.8 | 68.7 | 67.2 | 42 | 43.9 | viability, T/C [31]: 14.8%; viability, T/C [12]: 30%; viability, T/C [32]: 17.2%; viability, T/C [16]: 83.1%; viability, T/C [17]: 71.2%; viability, T/C [18]: 20.6%; viability, T/C [33]: 20.9%; viability, T/C [22]: 75.8%; viability, T/C [23]: 51.9%; viability, T/C [24]: 33.7%; viability, T/C [34]: 18.3%; viability, T/C [28]: 36.3%; viability, T/C [29]: 27%; viability, T/C [30]: 29.2%; viability, T/C [35]: 14%
